In article PMC6961122 (Bioorganic & Medicinal Chemistry, 2020):
Where two headings read alike, the source gives them in different places.

What was measured:
[1] = system: U87 cells; experiment: Cell viability assay (PrestoBlue, 5 d) in U87 glioma cells; assay type: cell-based; conditions: PrestoBlue day 5; for EC50 in U87 cells: repeat for most potent hits, 7-point half-log dose-response 1 to 1,000 nM; for activity (EC50) of novel compounds in U87, in words: 1 to 30,000 nM, Fig. 7
[2] = system: T98 cells; experiment: Cell viability assay (PrestoBlue, 5 d) in T98 glioma cells; assay type: cell-based; conditions: PrestoBlue day 5; for EC50 in T98 cells: repeat for most potent hits, 7-point half-log dose-response 1 to 1,000 nM; for activity (EC50) of novel compounds in T98, in words: 1 to 30,000 nM, Fig. 7
[3] = system: G317 patient-derived glioma cells; experiment: Growth inhibition (GI50, PrestoBlue, 5 d) in patient-derived glioma cells G317; assay type: cell-based, human; conditions: 5 d treatment, growth related to t=0 and DMSO, extrapolated from sigmoidal dose-response curve; for GI50: read-out: GI50 (50% of growth inhibition) in G317
Method: Cells were treated with each inhibitor at concentrations ranging from 1 to 10,000 nM and PrestoBlue assay used at day 5 to detect viability. […] Data are means ± SEM of 3 independent experiments in triplicates.
(§1) U87 and T98 cells (ATCC) were cultured in DMEM (Gibco), supplemented with 10% (v/v) FBS (Gibco) and 2 mM L-Glutamine (Gibco) in a standard incubator (95% humidity, 5% CO2), and subcultured twice per week through trypsinization. G317 patient-derived glioma cells were established by the Glioma Cellular Genetics Resource (gcgr.org.uk) funded by Cancer Research UK. Ethics approval for use of patient-derived cells and early access confirmation to reagents from the Glioma Cellular Genetics Resource assured that all ethical issues according to UK legislation are fulfilled. G317 were cultured in DMEM/HAMS-F12 (Sigma) supplemented with 1.5 g L^−1 D-(+)-Glucose (Sigma), MEM non-essential aminoacids (Gibco), 0.015% (w/v) Penicillin-Streptomycin (Gibco), 0.012% (w/v) BSA (Gibco), 0.1 mM β-mercaptoethanol (Gibco), B27 (Gibco) and N2 supplements (Gibco). Cells were detached using accutase solution (Sigma) and subcultured once per week. Before adding to the cells, medium was supplemented with 10 ng ml^−1 mouse EGF (Preprotech), 10 ng ml^−1 human FGF (Preprotech), and 1 µg ml^−1 Laminin (Sigma).
(§2) 1 × 10^3 U87 cells/well, 5 × 10^2 T98 cells/well, 1 × 10^4 G317 cells/well, 1 × 10^4 HBVP cells/well and 1 × 10^4 bEnd3 cells/well were seeded in 96-well plates. After 48 h in culture, cells were treated with the inhibitors for 5 d. For GI50 determination, the viability of a triplicate sample of each experiment before treatment was measured with the PrestoBlue Reagent (Invitrogen), to establish a basepoint 0% of growth. […] ZIP Synergy scores were obtained with Synergy finder.[22] Viability percentage, EC50 and GI50 values were obtained using GraphPad Prism version 8.0.0 for Windows, GraphPad Software, San Diego, California USA, www.graphpad.com.
Table S2 . GI 50 values (nM) calculated for eCF309 , eCF311 , eCF312 , eCF324 , eCF325 and controls
Cells were treated with 10, 3, 1 µM,
300, 100, 30, 10, 3, 1, 0 nM of each inhibitor during 5 d. Cell growth (PrestoBlue) was related to t=0 (before
drug treatment), and GI 50 values were extrapolated from their corresponding sigmoidal dose-response curve

[4] = system: U87 cells; experiment: Cell viability assay (PrestoBlue, 5 d) in U87 glioma cells; assay type: cell-based; conditions: library screen, 5 d treatment, mean of three independent experiments in triplicates, read-out: EC50 U87 ± SEM
Method: (§3) The antiproliferative activity of a total of 100 compounds was tested against U87 and T98 glioma cell lines, using TMZ[3] and the Topoisomerase I inhibitor SN-38[18] as positive controls. Cells were treated with the library members for 5 d at three different concentrations (3, 30 and 300 µM) and cell viability determined using the PrestoBlue reagent. Half-maximal effective concentration (EC50) values were calculated from the corresponding dose-response curves and plotted in Fig. 2a as a heatmap to facilitate data analysis, with black meaning no activity and dark to light green to yellow transitions indicating decreasing EC50 values (=increasing potencies). Table 1 of the Suppl. Data contains the corresponding EC50 values ± SEM.
(§4) INK128 and SN-38 were used as positive controls. […] Structurally, these derivatives differed in the size of the alkyl group of the N1 position and the presence or absence of an oxygen atom in that moiety (see Suppl. Data).
as §1, §2

[5] = system: PI3Kα; design: method as in earlier work; conditions: recombinant kinase; previously obtained kinase profiling data; cited from earlier work
[6] = system: T98 cells; experiment: Cell viability assay (PrestoBlue, 5 d) in T98 glioma cells; assay type: cell-based; conditions: library screen, 5 d treatment, mean of three independent experiments in triplicates, read-out: EC50 T98 ± SEM
Method: as §3, §4, §1, §2

[7] = system: mTOR; design: method as in earlier work; conditions: recombinant kinase; previously obtained kinase profiling data; cited from earlier work
[8] = Homo sapiens, Glioma cell, 120 h

Compound: 2-(1H-Indazol-4-yl)-6-(4-methanesulfonyl-piperazin-1-ylmethyl)-4-morpholin-4-yl-thieno[3,2-d]pyrimidine [GDC0941, reference compound]
- activity (EC50) in U87 cells, in words ([1]; 1 to 1,000 nM, Fig. 3): low µM activity
- activity (EC50) against T98, in words ([2]; 1 to 1,000 nM, Fig. 3): sub-µM activity

Compound: CCc1c2c(nc3ccc(O)cc13)-c1cc3c(c(=O)n1C2)COC(=O)[C@]3(O)CC [SN-38, reference compound]
- GI50 [3, 8]: 12.9 nM

Compound: CCOC(Cn1nc(-c2ccc3oc(N)nc3c2)c2c(N)ncnc21)OCC [eCF309]
- EC50 ([4]; Homo sapiens, U-87 MG, 120 h): 129 ± 19 nM
- IC50 [5]: 981 nM
- GI50 [3]: 64.9 nM
- GI50 [3, 8]: 65 nM
- EC50 ([6]; Homo sapiens, T98, 120 h): 128 ± 22 nM
- IC50 [7]: 15 nM

Compound: Nc1nc2cc(-c3nn(CC4OCCO4)c4ncnc(N)c34)ccc2o1 [eCF311]
- EC50 ([4]; Homo sapiens, U-87 MG, 120 h): 392 ± 58 nM
- GI50 [3, 8]: 147 nM
- EC50 ([6]; Homo sapiens, T98, 120 h): 323 ± 87 nM

Compound: COC(Cn1nc(-c2ccc3oc(N)nc3c2)c2c(N)ncnc21)OC [eCF312]
- EC50 ([4]; Homo sapiens, U-87 MG, 120 h): 116 ± 21 nM
- GI50 [3, 8]: 36.9 nM
- EC50 ([6]; Homo sapiens, T98, 120 h): 80 ± 21 nM

Compound: Nc1nc2cc(-c3nn(CC4CCCO4)c4ncnc(N)c34)ccc2o1 (stereo not drawn) [eCF325]
- EC50 ([4]; Homo sapiens, U-87 MG, 120 h): 138 ± 23 nM
- GI50 [3, 8]: 46.4 nM
- EC50 ([6]; Homo sapiens, T98, 120 h): 105 ± 23 nM

Compound: Nc1nc2cc(-c3nn(C[C@H]4CCCO4)c4ncnc(N)c34)ccc2o1 [eCF333]
- EC50 in U87 cells [1]: identical dose response curves to that of eCF325
- EC50 ([4]; Homo sapiens, U-87 MG, 120 h): 131 ± 10 nM
- EC50 in T98 cells [2]: identical dose response curves to that of eCF325
- GI50 (50% of growth inhibition) in G317 [3]: identical dose response curves to eCF325
- EC50 ([6]; Homo sapiens, T98, 120 h): 88 ± 14 nM

Compound: Nc1nc2cc(-c3nn(C[C@@H]4CCCO4)c4ncnc(N)c34)ccc2o1 [eCF334]
- EC50 in U87 cells [1]: identical dose response curves to that of eCF325
- EC50 ([4]; Homo sapiens, U-87 MG, 120 h): 138 ± 13 nM
- EC50 in T98 cells [2]: identical dose response curves to that of eCF325
- GI50 (50% of growth inhibition) in G317 [3]: identical dose response curves to eCF325
- EC50 ([6]; Homo sapiens, T98, 120 h): 100 ± 18 nM

Compound: CNc1ncc2c(-c3ccc4oc(N)nc4c3)nn(CC3CCCC3)c2n1 [eDB001]
- activity (EC50) of novel compounds in U87, in words [1]: high activity
- activity (EC50) of novel compounds in T98, in words [2]: high activity

Compound: Nc1ncnc2c1c(-c1cnc3[nH]ccc3c1)nn2CC1CCCC1 [eDB002]
- activity (EC50) of novel compounds in U87, in words [1]: high activity
- activity (EC50) of novel compounds in T98, in words [2]: high activity

Compound: CNc1ncc2c(-c3ccc(OC)cc3)nn(CC3CCCC3)c2n1 [eSM105]
- EC50 [4]: 20900 ± 1730 nM
- EC50 [6]: 6360 ± 563 nM

Compound: CNc1ncc2c(-c3ccc(C(N)=O)cc3)nn(CC3CCCC3)c2n1 [eSM106]
- EC50 [4]: > 30000 nM
- EC50 [6]: > 30000 nM

Compound: CNc1ncc2c(-c3ccc(N4CCNCC4)nc3)nn(CC3CCCC3)c2n1 [eSM107]
- EC50 [4]: 3330 ± 166 nM
- EC50 [6]: 2420 ± 504 nM

Compound: CNc1ncc2c(-c3cccc(C(N)=O)c3)nn(CC3CCCC3)c2n1 [eSM108]
- EC50 [4]: 23800 ± 2780 nM
- EC50 [6]: > 30000 nM

Compound: CNc1ncc2c(-c3ccc(OC)cc3)nn(CC3OCCO3)c2n1 [eSM110]
- EC50 [4]: > 30000 nM
- EC50 [6]: > 30000 nM

Compound: CNc1ncc2c(-c3ccc(-c4ccccc4)cc3)nn(CC3OCCO3)c2n1 [eSM111]
- EC50 [4]: > 30000 nM
- EC50 [6]: > 30000 nM

Compound: CNc1ncc2c(-c3ccc(N4CCNCC4)nc3)nn(CC3OCCO3)c2n1 [eSM112]
- EC50 [4]: 21300 ± 2350 nM
- EC50 [6]: 9260 ± 465 nM

Compound: CNc1ncc2c(-c3ccc(F)cc3)nn(CC3OCCO3)c2n1 [eSM113]
- EC50 [4]: > 30000 nM
- EC50 [6]: > 30000 nM

Compound: CNc1ncc2c(-c3ccc(C(F)(F)F)cc3)nn(CC3OCCO3)c2n1 [eSM114]
- EC50 [4]: > 30000 nM
- EC50 [6]: > 30000 nM

Compound: CNc1ncc2c(-c3ccc(N4CCNCC4)nc3)nn(Cc3cn(Cc4ccccc4)nn3)c2n1 [eSM119]
- EC50 [4]: 9730 ± 1220 nM
- EC50 [6]: 11300 ± 882 nM

Compound: CNc1ncc2c(-c3ccc(N4CCNCC4)nc3)nn(Cc3cn(C4CCCC4O)nn3)c2n1 (stereo not drawn) [eSM121]
- EC50 [4]: 16500 ± 1880 nM
- EC50 [6]: 26300 ± 1820 nM
